Measured values taken from ChEMBL document CHEMBL2069287, “Salidroside protects human erythrocytes against hydrogen peroxide-induced apoptosis” (J Nat Prod, 2012).
Activity calls are given as the source filed them. The rule behind the calls is not given here.

How the values were obtained:
[1] = Induction of eryptosis in human erythrocytes assessed as late apoptotic cells at 100 uM after 24 hrs by PE-annexinV/calcein flow cytometric assay (reference value: 0%); type: cell-based; details: erythrocyte
[2] = Induction of eryptosis in human erythrocytes assessed as late apoptotic cells at 300 uM after 24 hrs by PE-annexinV/calcein flow cytometric assay (reference value: 0%); type: cell-based; details: erythrocyte
Erythrocyte [3] = assay: Cytoprotective activity against H202-induced apoptosis in human erythrocytes assessed as decrease in cytosolic free calcium level after 24 hrs by PE-annexinV/Fluor4 flow cytometric analysis; type: functional, cell-based
Erythrocyte [4] = assay: Cytoprotective activity against H202-induced apoptosis in human erythrocytes assessed as decrease in phosphatidylserine externalization after 24 hrs by PE-annexinV/Fluor4 flow cytometric analysis; type: functional, cell-based
Erythrocyte [5] = assay: Cytoprotective activity in human erythrocytes assessed as decrease in caspase-3-mediated FAM-DEVD-FMK cleavage at 100 uM after 24 hrs by fluorometric assay (reference value: 0.28%); type: functional; set-up: scale not given: the % may be the effect or the level left
Erythrocyte [6] = assay: Cytoprotective activity in human erythrocytes assessed as decrease in caspase-3-mediated FAM-DEVD-FMK cleavage at 300 uM after 24 hrs by fluorometric assay (reference value: 0.28%); type: functional; set-up: scale not given: the % may be the effect or the level left
Erythrocyte [7] = assay: Cytoprotective activity in human erythrocytes assessed as decrease in H202-induced caspase-3-mediated FAM-DEVD-FMK cleavage after 24 hrs by fluorometric assay; type: functional, cell-based
Erythrocyte [8] = assay: Cytoprotective activity in human erythrocytes assessed as decrease in H202-induced caspase-3-mediated FAM-DEVD-FMK cleavage at 100 uM after 24 hrs by fluorometric assay (reference value: 51.22%); type: functional; set-up: scale not given: the % may be the effect or the level left
Erythrocyte [9] = assay: Cytoprotective activity in human erythrocytes assessed as decrease in H202-induced caspase-3-mediated FAM-DEVD-FMK cleavage at 300 uM after 24 hrs by fluorometric assay (reference value: 51.22%); type: functional; set-up: scale not given: the % may be the effect or the level left
Erythrocyte [10] = assay: Cytoprotective activity in human erythrocytes assessed as decrease in ionomycin-induced cytosolic free calcium level at 100 uM after 24 hrs by Fluo4 staining-based assay (reference value: 1.76%); type: functional; set-up: scale not given: the % may be the effect or the level left
Erythrocyte [11] = assay: Cytoprotective activity in human erythrocytes assessed as decrease in ionomycin-induced cytosolic free calcium level at 300 uM after 24 hrs by Fluo4 staining-based assay (reference value: 57.79%); type: functional; set-up: scale not given: the % may be the effect or the level left
Erythrocyte [12] = assay: Cytoprotective activity in human erythrocytes assessed as decrease in STS-mediated caspase3 activation at 100 uM after 24 hrs by fluorimetric assay (reference value: 58.78%); type: functional; set-up: scale not given: the % may be the effect or the level left
Erythrocyte [13] = assay: Cytoprotective activity in human erythrocytes assessed as decrease in STS-mediated caspase3 activation at 300 uM after 24 hrs by fluorimetric assay (reference value: 58.78%); type: functional; set-up: scale not given: the % may be the effect or the level left
Erythrocyte [14] = assay: Antioxidant activity in human erythrocytes assessed as decrease in H202-induced ROS production after 24 hrs by DCF-based flow cytometric analysis; type: functional, cell-based
[15] = Antioxidant activity in human erythrocytes assessed as decrease in H202-induced ROS production at 100 uM after 24 hrs by DCF-based flow cytometric analysis (reference value: 68.32%); type: functional, Erythrocyte; set-up: scale not given: the % may be the effect or the level left
[16] = Antioxidant activity in human erythrocytes assessed as decrease in H202-induced ROS production at 300 uM after 24 hrs by DCF-based flow cytometric analysis (reference value: 68.32%); type: functional, Erythrocyte; set-up: scale not given: the % may be the effect or the level left
[17] = Toxicity in human erythrocytes assessed as hemolysis up to 800 uM after 2 hrs by spectrophotometry; type: cell-based; details: erythrocyte
[18] = Toxicity in human erythrocytes assessed as hemolysis up to 400 uM after 24 hrs by spectrophotometry; type: cell-based; details: erythrocyte
Erythrocyte [19] = assay: Cytoprotective activity in human erythrocytes assessed as protection against H202-induced hemolysis from 2 to 24 hrs by spectrophotometry; type: functional, cell-based
Erythrocyte [20] = assay: Cytoprotective activity in human erythrocytes assessed as protection against H202-induced hemolysis at 50 to 100 uM from 2 to 24 hrs by spectrophotometry; type: functional, cell-based
Erythrocyte [21] = assay: Cytoprotective activity against H202-induced eryptosis in human erythrocytes assessed as viable cells at 100 uM after 24 hrs by PE-annexinV/calcein flow cytometric assay (reference value: 63.38%); type: functional; details: read-out: Activity
Erythrocyte [22] = assay: Cytoprotective activity against H202-induced eryptosis in human erythrocytes assessed as viable cells at 300 uM after 24 hrs by PE-annexinV/calcein flow cytometric assay (reference value: 63.38%); type: functional; details: read-out: Activity
Erythrocyte [23] = assay: Cytoprotective activity against H202-induced eryptosis in human erythrocytes assessed as very early apoptotic cells at 100 uM after 24 hrs by PE-annexinV/calcein flow cytometric assay (reference value: 27.15%); type: functional
Erythrocyte [24] = assay: Cytoprotective activity against H202-induced eryptosis in human erythrocytes assessed as very early apoptotic cells at 300 uM after 24 hrs by PE-annexinV/calcein flow cytometric assay (reference value: 27.15%); type: functional
Erythrocyte [25] = assay: Cytoprotective activity against H202-induced eryptosis in human erythrocytes assessed as early apoptotic cells at 100 uM after 24 hrs by PE-annexinV/calcein flow cytometric assay (reference value: 9.34%); type: functional
Erythrocyte [26] = assay: Cytoprotective activity against H202-induced eryptosis in human erythrocytes assessed as early apoptotic cells at 300 uM after 24 hrs by PE-annexinV/calcein flow cytometric assay (reference value: 9.34%); type: functional
Erythrocyte [27] = assay: Cytoprotective activity against H202-induced eryptosis in human erythrocytes assessed as late apoptotic cells at 100 uM after 24 hrs by PE-annexinV/calcein flow cytometric assay (reference value: 0.13%); type: functional
Erythrocyte [28] = assay: Cytoprotective activity against H202-induced eryptosis in human erythrocytes assessed as late apoptotic cells at 300 uM after 24 hrs by PE-annexinV/calcein flow cytometric assay (reference value: 0.13%); type: functional
[29] = Induction of eryptosis in human erythrocytes assessed as viable cells at 100 uM after 24 hrs by PE-annexinV/calcein flow cytometric assay (reference value: 97.21%); type: cell-based, Erythrocyte; details: read-out: Activity
[30] = Induction of eryptosis in human erythrocytes assessed as viable cells at 300 uM after 24 hrs by PE-annexinV/calcein flow cytometric assay (reference value: 97.21%); type: cell-based, Erythrocyte; details: read-out: Activity
[31] = Induction of eryptosis in human erythrocytes assessed as very early apoptotic cells at 100 uM after 24 hrs by PE-annexinV/calcein flow cytometric assay (reference value: 0.2%); type: cell-based; details: erythrocyte
[32] = Induction of eryptosis in human erythrocytes assessed as very early apoptotic cells at 300 uM after 24 hrs by PE-annexinV/calcein flow cytometric assay (reference value: 0.2%); type: cell-based; details: erythrocyte
[33] = Induction of eryptosis in human erythrocytes assessed as early apoptotic cells at 100 uM after 24 hrs by PE-annexinV/calcein flow cytometric assay (reference value: 2.59%); type: cell-based; details: erythrocyte
[34] = Induction of eryptosis in human erythrocytes assessed as early apoptotic cells at 300 uM after 24 hrs by PE-annexinV/calcein flow cytometric assay (reference value: 2.59%); type: cell-based; details: erythrocyte

Activity (Erythrocyte [7]): Dose-dependent effect
Structure (SMILES): OC[C@H]1O[C@@H](OCCc2ccc(O)cc2)[C@H](O)[C@@H](O)[C@@H]1O [SALIDROSIDE]
Activity [1]: 0% | Activity [2]: 0% | Activity (Erythrocyte [3]): Dose-dependent effect | Activity (Erythrocyte [4]): Dose-dependent effect | Activity (Erythrocyte [5]): 0.23% | Activity (Erythrocyte [6]): 0.22% | Activity (Erythrocyte [8]): 42.12% | Activity (Erythrocyte [9]): 37.71% | Activity (Erythrocyte [10]): 48.77% | Activity (Erythrocyte [11]): 46.24% | Activity (Erythrocyte [12]): 49.38% | Activity (Erythrocyte [13]): 47.16% | Activity (Erythrocyte [14]): Dose-dependent effect | Activity [15]: 58.82% | Activity [16]: 51.39% | Activity [17]: Non-toxic | Activity [18]: Non-toxic | Activity (Erythrocyte [19]): Dose-dependent effect | Activity (Erythrocyte [20]): Active | viability at 100 µM (Erythrocyte [21]): 70.4% | viability at 300 µM (Erythrocyte [22]): 74.7% | Activity (Erythrocyte [23]): 17.01% | Activity (Erythrocyte [24]): 14.16% | Activity (Erythrocyte [25]): 12.38% | Activity (Erythrocyte [26]): 11.08% | Activity (Erythrocyte [27]): 0.18% | Activity (Erythrocyte [28]): 0.11% | viability at 24 h, 100 µM [29]: 97.5% | viability at 24 h, 300 µM [30]: 97.5% | Activity [31]: 0.14% | Activity [32]: 0.04% | Activity [33]: 2.38% | Activity [34]: 2.46%
